Test results from ChEMBL document CHEMBL1201862, “PubChem BioAssay data set” (2004).
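The compound was tested at five concentrations on cells cultured in 96-well plates, with a 48-hour exposure period. At the GI50, growth is halved.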 Activity calls are given as the source filed them. Cut-off read from the data, not from the text of the source: active = GI50 up to about 1.1 µM and inactive = higher.

Key:
Experiment in all cases: inhibition of tumour cell growth, NCI panel, 48 h
NCI-H460 = system: NCI-H460
NCI-H226 = system: NCI-H226
SF-268 = system: SF-268
IGROV-1 = system: IGROV-1
MOLT-4 = system: MOLT-4
SK-MEL-2 = system: SK-MEL-2
HCT-116 = system: HCT-116
UACC-62 = system: UACC-62
A498 = system: A498
HOP-92 = system: HOP-92
MCF7 = system: MCF7
HOP-62 = system: HOP-62
NCI-H23 = system: NCI-H23
UO-31 = system: UO-31
CAKI-1 = system: CAKI-1
TK-10 = system: TK-10
SF-295 = system: SF-295
SN12C = system: SN12C
786-0 = system: 786-0
RXF 393 = system: RXF 393

Measured: GI50

c1ccc2c(c1)CCCN1CCc3ccccc3C21 (centres undefined)
inactive: NCI-H460 33.9 µM | NCI-H226 33.3 µM | SF-268 92 µM | IGROV-1 40.3 µM | MOLT-4 50.9 µM | SK-MEL-2 96.6 µM | HCT-116 38.5 µM | UACC-62 35.2 µM | A498 > 100 µM | HOP-92 24.9 µM | MCF7 > 100 µM | HOP-62 50 µM | NCI-H23 48.4 µM | UO-31 30.3 µM | CAKI-1 93.5 µM | TK-10 61.4 µM | SF-295 40.2 µM | SN12C 57 µM | 786-0 80.9 µM

NC(=O)N/N=C1\CC2C3CC4C2C4C13 (centres undefined)
inactive: NCI-H460 > 100 µM | NCI-H226 > 100 µM | SF-268 > 100 µM | IGROV-1 > 100 µM | MOLT-4 > 100 µM | SK-MEL-2 > 100 µM | HCT-116 > 100 µM | UACC-62 > 100 µM | A498 > 100 µM | HOP-92 > 100 µM | MCF7 > 100 µM | HOP-62 > 100 µM | NCI-H23 > 100 µM | UO-31 > 100 µM | CAKI-1 > 100 µM | TK-10 > 100 µM | SF-295 > 100 µM | SN12C > 100 µM | 786-0 > 100 µM

Oc1cc(-c2ccc(F)cc2)nc2ncccc12
inactive: NCI-H226 24.3 µM | SF-268 62.1 µM | IGROV-1 67.5 µM | MOLT-4 52.7 µM | SK-MEL-2 33.5 µM | UACC-62 33.8 µM | A498 87.3 µM | HOP-92 45.3 µM | MCF7 38.5 µM | HOP-62 98.2 µM | NCI-H23 63.4 µM | UO-31 34.4 µM | CAKI-1 70.5 µM | TK-10 > 100 µM | SN12C > 100 µM

O=C(c1cccc(OCc2ccccc2)c1OCc1ccccc1)N1CCSC1=S
inactive: NCI-H460 28 µM | NCI-H226 23.8 µM | SF-268 11.9 µM | IGROV-1 28.6 µM | MOLT-4 12.6 µM | SK-MEL-2 34.6 µM | HCT-116 21.4 µM | UACC-62 19.2 µM | A498 16.5 µM | HOP-92 18.1 µM | MCF7 23 µM | HOP-62 27.2 µM | NCI-H23 19.1 µM | UO-31 10.6 µM | CAKI-1 31 µM | TK-10 56.5 µM | SF-295 30 µM | SN12C 19.5 µM | 786-0 42.8 µM

CN(CC(=O)N1CC(CCl)c2ccc([N+](=O)[O-])cc21)CC(=O)N1CC(CCl)c2ccc([N+](=O)[O-])cc21 (centres undefined)
inactive: NCI-H460 > 100 µM | NCI-H226 > 100 µM | SF-268 > 100 µM | IGROV-1 34.9 µM | MOLT-4 > 100 µM | SK-MEL-2 97.9 µM | HCT-116 > 100 µM | UACC-62 > 100 µM | A498 > 100 µM | HOP-92 > 100 µM | MCF7 > 100 µM | HOP-62 > 100 µM | NCI-H23 > 100 µM | UO-31 > 100 µM | CAKI-1 > 100 µM | TK-10 > 100 µM | SF-295 > 100 µM | SN12C > 100 µM | 786-0 > 100 µM

CC(C)(CC1(C)NC(=O)NC1=O)OCc1ccccc1 (centres undefined)
inactive: NCI-H460 > 100 µM | RXF 393 > 100 µM | SF-268 > 100 µM | IGROV-1 > 100 µM | SK-MEL-2 > 100 µM | HCT-116 > 100 µM | UACC-62 > 100 µM | A498 > 100 µM | HOP-92 > 100 µM | MCF7 > 100 µM | HOP-62 > 100 µM | NCI-H23 > 100 µM | UO-31 > 100 µM | CAKI-1 > 100 µM | TK-10 > 100 µM | SF-295 > 100 µM | SN12C > 100 µM | 786-0 > 100 µM
